According to US20250084039A1, “4-SUBSTITUTED AMINOISOQUINOLINE DERIVATIVES” (Purdue Research Foundation, priority 2016, published 2025):
Read-outs that look alike come from different tables or passages of the source.

How the values were obtained:
Assay type in all cases: cell-based
[1] = tested on: HeLa; assay: Proliferation inhibition at single concentration (CellTiter-Blue); conditions: for Percent inhibition of proliferation HeLa: 1 μM compound
Method: (§1) Plates were then treated with compound diluted in dimethyl sulfoxide (DMSO) as well as a DMSO control the following day for 72 hours. After this time the plates were then treated with 10 μL of CellTiter-Blue Cell Viability Assay (Promega, Madison, WI) for 4 hours. Then the plates were read on a plate reader (Bio-Tek, Winooski, VT). Data was analyzed on Excel as a percent of the DMSO vehicle.
(§2) Antiproliferative activities against AML cell line, MV4-11 (a FLT3-driven cell line) and three other solid tumors (MCF7, breast, HCT116, colon and HeLa) have been investigated (Tables 6A and 6B and FIG. 10).

[2] = tested on: MCF-7; assay: as above; conditions: for Percent inhibition of proliferation MCF-7: 1 μM compound
Method: as §1, §2

[3] = tested on: K562; assay: IC50 proliferation assay (Alamar Blue, 72 h)
Method: IC50 proliferation assay—Cell lines and primary cells were seeded into 96-well plates the afternoon prior to treatment. Approximately 18 hours later, compounds were semi-serially diluted in dimethyl sulfoxide (DMSO) and then growth medium, and added to cells. Plates were incubated for 72 hours prior to addition of Alamar Blue (Life Technologies, Carlsbad, CA). Plates were read after 4 additional hours of incubation at 37° C. using a Bio-Tek Synergy HT plate reader (Bio-Tek, Winooski, VT). Data was analyzed and graphed using GraphPad Prism Software (Graphpad, La Jolla. CA).
IC50 (proliferation inhibition) against leukemia cell lines MV4-11 and K562. […] MiaPaca-2 (Pancreatic cell line), HLY-1 (Lymphoma cell line), MV4-11 (AML, cell line) and K562 (CML cell line).

[4] = tested on: MV-4-11; assay: Proliferation inhibition at single concentration (CellTiter-Blue); conditions: 1 μM compound
[5] = tested on: HCT116; assay: as above; conditions: 1 μM compound
[6] = tested on: MV4-11; assay: Activity against AML cell line MV4-11 (CellTiter-Blue, 72 h)
Method: Cells were added to 96 well plates at 2000 cells per well for adherent lines and 4000 cells per well for suspension lines and kept in an incubator overnight. The following day the plates were treated with compounds to give rise to the final concentrations of; 100 μM, 10 μM, 5 μM 1 μM, 500 nM, 100 nM, 10 nM, […]. The plates were then stored in the incubator for 72 hours. On the third day the cells were assayed with 20 μL of CellTiter—Blue Cell Viability Assay per well and were incubated for 4 hours. After 4 hours' fluorescence intensity was taken on a plate reader: Excitation: 560/10 Emission: 590/10. IC50 analysis was performed on GraphPad Prism 7.

[7] = Table 18, read-out: Inhibition of proliferation of K562 cell lines (CML)
[8] = 72 h, read-out: IC50 against MV4-11/uM
[9] = FIG. 1, read-out: anticancer activities (IC50) against MV4-11
[10] = Table 2, read-out: IC50 (nM) against MV4-11 (AML cell line)
[11] = Homo sapiens, K562, Table 18, read-out: Inhibition of proliferation of K562 cell lines (CML)

| Compound | Percent inhibition of proliferation MV-4-11 [4] [%] | Percent inhibition of proliferation HCT116 [5] [%] | Percent inhibition of proliferation HeLa [1] [%] | Percent inhibition of proliferation MCF-7 [2] [%] | also measured |
| --- | --- | --- | --- | --- | --- |
| Nc1ncc2ccc(Cl)cc2c1C#Cc1ccc(C2=NC(C3CC3)CN2)cc1 (stereo not drawn) [Compound 1703] |  |  |  |  | activity against HeLa in words ([1]; FIG. 3): potent; activity against MCF-7 in words ([2]; FIG. 2): potent |
| Cc1ccc(C(=O)NCCN2CCCC2)cc1C#Cc1c(N)ncc2ccc(Cl)cc12 [HSL41] |  |  |  |  | IC50 [3, 7]: 30.1 ± 0.19 nM |
| Cc1ccc(C(=O)NCCN2CCOCC2)cc1C#Cc1c(N)ncc2ccc(Cl)cc12 [HSL43] |  |  |  |  | IC50 [3, 7]: 10.1 ± 0.1 nM |
| Cc1ccc(C(=O)NCCN2CCCCC2)cc1C#Cc1cnc2cccnn12 [HSL44] |  |  |  |  | IC50 [3, 7]: 43.5 ± 0.14 nM |
| Cc1ccc(C(=O)NCCN2CCCCC2)cc1C#Cc1cnc(N)c2ncccc12 [HSL45] |  |  |  |  | IC50 [3, 7]: 25.3 ± 0.1 nM |
| Cc1ccc(C(=O)NCCN2CCN(C)CC2)cc1C#Cc1c(N)ncc2ccc(Cl)cc12 [HSL47] |  |  |  |  | IC50 [3, 7]: 161.1 ± 0.11 nM |
| Cc1ccc(C(=O)NCCCN2CCCCC2)cc1C#Cc1c(N)ncc2ccc(Cl)cc12 [HSL56] |  |  |  |  | IC50 [3, 7]: 95.4 ± 0.23 nM |
| Cc1ccc(C(=O)NCCN2CCCCC2)cc1C#Cc1cnc(N)c2ccccc12 [HSL58] |  |  |  |  | IC50 [3, 7]: 94.5 ± 0.1 nM |
| Nc1ncc2ccc(Cl)cc2c1C#Cc1ccc(C(=O)NCCCN2CCOCC2)cc1 [HSM1610] | 90 | 39 | 20 | 29 |  |
| N#Cc1cccc(C#Cc2c(N)ncc3ccc(Cl)cc23)c1 [HSM1617] |  |  |  |  | IC50 [6, 8]: 0.77 µM |
| CN1CCN(Cc2ccc(NC(=O)c3ccc(C#Cc4c(N)ncc5ccc(Cl)cc45)cc3)cc2)CC1 [HSM1661] | 90 | 0 | 1 | 96 | IC50 [6, 8]: 0.016 µM |
| CN(C)CCNC(=O)c1ccc(C#Cc2c(N)ncc3ccc(Cl)cc23)cc1 [HSM1669] | 83 | 46 | 20 | 98 | IC50 [6, 8]: 0.26 µM; IC50 [6, 9]: 0.26 µM |
| Nc1ncc2ccc(Cl)cc2c1C#Cc1ccc(C(=O)NCCCN2CCCC2)cc1 [HSM1673] | 98 | 28 | 38 | 56 | IC50 [6, 8]: 0.011 µM; IC50 [6, 10]: 0.025 ± 0.0014 µM |
| CN1CCN(CCCNC(=O)c2ccc(C#Cc3c(N)ncc4ccc(Cl)cc34)cc2)CC1 [HSM1674] | 93 | 14 | 8 | 36 | IC50 [6, 8]: 0.11 µM |
| Nc1ncc2ccc(Cl)cc2c1C#Cc1ccc(C(=O)NCCCN2CCCCC2)cc1 [HSM1683] | 95 | 10 | 49 | 57 | IC50 [6, 8]: 0.003 µM; IC50 [6, 10]: 0.0421 ± 0.0013 µM |
| CN(C)CCCCCNC(=O)c1ccc(C#Cc2c(N)ncc3ccc(Cl)cc23)cc1 [HSM1684] |  |  |  |  | IC50 [6, 8]: 0.071 µM; IC50 [6, 9]: 0.071 µM |
| O=C(NCCCN1CCCCC1)c1ccc(C#Cc2cncc3ccccc23)cc1 [HSM1690] |  |  |  |  | IC50 [6, 8]: 3.09 µM |
| CC(C)(C)OC(=O)N1CCN(CCCNC(=O)c2ccc(C#Cc3c(N)ncc4ccc(Cl)cc34)cc2)CC1 [HSM1693] |  |  |  |  | IC50 [6, 8]: 0.03 µM; IC50 [6, 10]: 0.0148 ± 0.0014 µM |

| Compound | Percent inhibition of proliferation MV-4-11 [4] [%] | Percent inhibition of proliferation HCT116 [5] [%] | Percent inhibition of proliferation HeLa [1] [%] | Percent inhibition of proliferation MCF-7 [2] [%] | also measured |
| --- | --- | --- | --- | --- | --- |
| Nc1ncc2ccc(Cl)cc2c1C#Cc1ccc(C(=O)NCC(O)CN2CCCCC2)cc1 (stereo not drawn) [HSM1725] |  |  |  |  | IC50 [6, 8]: 0.008 µM |
| Nc1ncc2ccc(Cl)cc2c1C#Cc1ccc(C(=O)NCC(O)CN2CCCC2)cc1 (stereo not drawn) [HSM1750] | 93 | 20 | 11 | 17 |  |
| Nc1ncc2ccc(Cl)cc2c1C#Cc1cccc(C(=O)NCC(O)CN2CCCC2)c1 (stereo not drawn) [HSM1751] | 91 | 32 | 23 | 47 |  |
| Nc1ncc2ccc(Cl)cc2c1C#Cc1ccc(C(=O)N2CCC3(CCNCC3)CC2)cc1 [HSM1773] | 93 | 24 | 24 | 43 |  |
| CN(C)CCOc1ccc(CNC(=O)c2ccc(C#Cc3c(N)ncc4ccc(Cl)cc34)cc2)cc1 [HSN99] | 97 | 20 | 6 | 42 |  |
| CC(C)(C)OC(=O)NC1CCN(C(=O)c2ccc(C#Cc3c(N)ncc4ccc(Cl)cc34)cc2)CC1 [HSN139] | 95 | 32 | 35 | 60 |  |
| Nc1ncc2ccc(Cl)cc2c1C#Cc1ccc(C(=O)NCCc2c[nH]cn2)cc1 [HSN145] | 99 | 35 | 11 | 6 |  |
| Nc1ncc2ccc(Cl)cc2c1C#Cc1cccc(C(=O)NCCc2c[nH]cn2)c1 [HSN157] | 96 | 12 | 33 | 21 |  |
| CN(C)CC(O)CNC(=O)c1cccc(C#Cc2c(N)ncc3ccc(Cl)cc23)c1 (stereo not drawn) [HSN161] | 97 | 18 | 70 | 91 |  |
| Nc1ncc2ccc(Cl)cc2c1C#Cc1cccc(C(=O)N2CCC(N)CC2)c1.O=C(O)C(F)(F)F [HSN174] | 85 | 28 | 10 | 40 |  |
| NCC(O)CNC(=O)c1ccc(C#Cc2c(N)ncc3ccc(Cl)cc23)cc1 (stereo not drawn) [HSN177] | 91 | 15 | 1 | 46 |  |
| CCN(CC)CC(O)CNC(=O)c1ccc(C#Cc2c(N)ncc3ccc(Cl)cc23)cc1 (stereo not drawn) [HSN184] | 97 | 38 | 51 | 92 |  |
| CCN(CC)CC(O)CNC(=O)c1ccc(C)c(C#Cc2c(N)ncc3ccc(Cl)cc23)c1 (stereo not drawn) [HSN185] | 97 | 67 | 99 | 100 |  |
| CCN(CC)CC(O)CNC(=O)c1cccc(C#Cc2c(N)ncc3ccc(Cl)cc23)c1 (stereo not drawn) [HSN189] | 95 | 7 | 18 | 49 |  |
| NCCNC(=O)c1ccc(C#Cc2c(N)ncc3ccc(Cl)cc23)cc1 [HSN204] | 77 | 21 | 22 | 20 |  |
| COc1cc2nc(N)nc(C#Cc3cc(C(=O)NCc4ccc(OCCN(C)C)cc4)ccc3C)c2cc1OC [HSN317, 3-((2-amino-6,7-dimethoxyquinazolin-4-yl)ethynyl)-N-(4-(2-(dimethylamino)ethoxy)benzyl)-4-methylbenzamide] |  |  |  |  | IC50 ([3]; Homo sapiens, K562, 72 h, read-out: IC50 (proliferation inhibition) Cell line - K562): 1480 nM; IC50 [3, 11]: 1483 ± 0.1 nM |
| Cc1ccc(C(=O)Nc2ccc(CN3CCN(C)CC3)c(C(F)(F)F)c2)cc1C#Cc1c(N)nc(C)c2ccccc12 [HSN375, 3-((3-amino-1-methylisoquinolin-4-yl)ethynyl)-4-methyl-N-(4-((4-methylpiperazin-1-yl)methyl)-3-(trifluoromethyl)phenyl)benzamide] |  |  |  |  | IC50 [3, 11]: 8.8 ± 0.4 nM |
| Cc1ccc(C(=O)Nc2ccc(CN3CCN(C)CC3)c(C(F)(F)F)c2)cc1C#Cc1c(N)ncc2cc(Cl)c(Cl)cc12 [HSN393, 3-((3-amino-6,7-dichloroisoquinolin-4-yl)ethynyl)-4-methyl-N-(4-((4-methylpiperazin-1-yl)methyl)-3-(trifluoromethyl)phenyl)benzamide] |  |  |  |  | IC50 [3, 11]: 7.3 ± 0.04 nM |
